Experimental data from patent US20030175678A1, “Methods for identifying genes regulating desired cell phenotypes” (priority 2001, published 2003).

Legend:
Type in all cases: cell-based
[1] = system: C. acinaciformis suspension culture; assay: Effect of methyl jasmonate on catechin accumulation in Crassula acinaciformis suspension culture; settings: M33 medium, added on day 7, by day 16
Description: Catechin derivative profiles in the C. acinaciformis suspension culture were obtained from incubations in 250 mL conical flasks containing either 100 mL of M62 growth medium or 100 mL of a secondary metabolite production medium M33 (Murashige and Skoog (1962); modified to contain 5% sucrose and no hormones) inoculated with 40 mL of 21 day old suspension culture. The cultures were incubated under low light conditions (approximately 30 lux) at 25° C. […] 10 mL culture samples were taken at regular intervals for 16 days following the day of subculture to M33 medium. All culture samples were centrifuged for five minutes at 4000 rpm, and the cell residue was freeze-dried. Extraction, sample preparation, and HPLC analysis were performed as described in Example 1.

[2] = system: C. barkleyi suspension culture; assay: Differential induction of catechin accumulation in Crassula barkleyi suspension culture; settings: B49 medium, treated seven days after inoculation, sampled for 17 days
Description: Differential induction of catechin derivatives in the C. barkleyi suspension culture was performed in 250 mL conical flasks containing 100 mL of a secondary metabolite production medium B49 (Gamborg's B5, with 5% sucrose, and no hormones), inoculated with 16 mL of 14 day old suspension culture. The cultures were incubated under low light conditions (approximately 30 lux) at 25° C. for seven days after inoculation. Cultures were then treated using one of each of the following protocols (untreated cultures were also maintained as controls):
(2) Autoclaved aqueous 2,4-D (1 mg/L final concentration) was added;
(4) Filter-sterilized aqueous DL-phenylalanine (200 mg/L) was added;
(6) Filter-sterilized aqueous zeatin (10 μM) was added;
(7) Filter-sterilized aqueous 1-aminocyclopropane-1-carboxylic acid (10 mg/L final concentration) was added;
(8) Filter-sterilized 24-epibrassinolide (1 mg/L final concentration) was added;
(9) Incubation at a temperature of 16° C.; or (10) High light regime (approximately 160 lux).
Ten milliliter culture samples were taken at regular intervals for 17 days following the day of subculture to B49 medium. All culture samples were centrifuged for five minutes at 4000 rpm, and the cell residue was freeze-dried. Extraction, sample preparation, and HPLC analysis were performed as described in Example 1.

terpene cyclases = assay: PCR with degenerate terpene cyclase primers in Ajuga reptans cultures; settings: 24 hour post-treatment cultures
terpene cyclase = assay: RT-PCR of terpene cyclase in Ajuga reptans cultures; settings: 24 hours after treatment
Description: To investigate the pattern of regulation of the terpene cyclase identified as described above, primers were synthesized that corresponded to sequence at each end of the RACE fragment. Ajuga reptans cultures were subject to the treatments described above, and RNA collected eight and 24 hours after treatment. RT-PCR was carried out using an […]™ One-Step RT-PCR kit (Clontech Laboratories, Palo Alto, Calif.). […] The primers also appear to be amplifying a constitutive cyclase.

[3] = system: Ajuga reptans suspension culture; assay: Differential induction of diterpenes (Compound 6) in Ajuga reptans suspension culture; settings: B49 production medium, treated day 7, harvested after a further seven days, n = 3
Description: Differential induction of diterpenoids in the Ajuga reptans suspension culture was performed by inoculating 500 mL conical flasks containing 190 mL of a secondary metabolite production medium B49 (Gamborg's B5, 5% sucrose, no hormones), with 70 mL of 14 day old suspension culture. The culture was incubated at 25° C. in continuous low light and shaken at 140 rpm. Cultures were grown for seven days (25° C. in continuous low light and shaken at 140 rpm) and then dispensed as 5 mL aliquots to 6-well plates (Bibby Sterilin Ltd, Stone, UK). Cultures were then treated using one of the following protocols:
Triplicate samples were set up for each treatment. Cultures were incubated for a further seven days before harvest for extraction and analysis of diterpenoids.
Cultures were harvested by freezing entire 6-well plates at −20° C. and then freeze-drying cultures in situ. […] After standing for one hour 500 μL of filtered methanol extract was removed and immediately analyzed.
HPLC analysis was carried out using an Xterra RP 18 column (dimensions 3×150 mm with 5 μm packing) using an isocratic solvent system of water (two volumes): acetonitrile (three volumes) to which has been added 0.1% acetic acid. […] The eluate was monitored by UV absorption. The principal diterpene metabolite (Compound 6) has UV absorption maxima at 230, 290 and 340 nm and can be sensitively monitored at any of these wavelengths. […]

[4] = system: C. dejecta suspension culture; assay: Differential induction of catechin accumulation in Crassula dejecta suspension culture
Description: Differential induction of catechin derivatives in the C. dejecta suspension culture was performed in 250 mL conical flasks containing 100 mL of B105 growth medium or 100 mL of a secondary metabolite production medium B49 (Gamborg's B5, with 5% sucrose, and no hormones), inoculated with 40 mL of 21 day old suspension culture. The cultures were incubated under low light conditions (approximately 30 lux) at 25° C. Cultures were treated using one of each of the following protocols:
(1) B105 growth medium (no additions) used as is;
(3) Filter-sterilized aqueous zeatin (10 μM) was added at day 7 to a culture grown on B105 medium;
(4) B49 production medium (no additions) used as is;
(6) Filter-sterilized clofibrate (0.5 mM final concentration) was added at day 7 to a culture grown on B49 medium. Ten milliliters of culture samples were taken at regular intervals for 17 days following the day of subculture to B105 or B49 medium. All culture samples were centrifuged for five minutes at 4000 rpm, and the cell residue was freeze-dried. Extraction, sample preparation, and HPLC analysis were performed as described in Example 1.

[5] = system: S. tectorum suspension culture; assay: Catechin profiling in Sempervivum tectorum suspension culture; settings: B49 medium, added on day 7
Description: Catechin derivative profiles in the S. tectorum suspension culture were obtained from incubations in 250 mL conical flasks containing either 100 mL of B88 growth medium or 100 mL of a secondary metabolite production medium B49 (Gamborg's B5 modified to contain 5% sucrose and no hormones) inoculated with 40 mL of 21 day old suspension culture. The cultures were incubated under low light conditions (approximately 30 lux) at 25° C.
Ten milliliters of culture samples were taken at regular intervals for 16 days following the day of subculture to B88 or B49 medium. All culture samples were centrifuged for five minutes at 4000 rpm and the supernatant liquid was removed and frozen. The cell residue was freeze-dried. Extraction, sample preparation, and HPLC analysis were performed as described in Example 1.

CC/C=C\CC1C(=O)CCC1CC(=O)OC (stereo not drawn) [methyl jasmonate]
catechin level [1]: approximate doubling of catechin level | catechin biosynthesis and EGCG accumulation [2]: induced catechin biosynthesis and EGCG accumulation | PCR band of first degenerate primer combination (terpene cyclases): induced | PCR band of second degenerate primer combination (candidate cyclase for compound 6) (terpene cyclases): not | induction of terpene cyclase (RT-PCR) (terpene cyclase): induced | Compound 6 (mg/L culture) Mean [3]: 9.52 mg/L culture | induction of EGCG and other catechins ([4]; cultures grown on both B105 and B49 media, added at day 7): induced EGCG and other catechins | accumulation of EGCG ([4]; on B49, methyl jasmonate added at day 7): ten-fold | catechin level [5]: no further increase in catechin level
